The values that follow come from patent publication US20240122926A1, “APELIN RECEPTOR MODULATORS FOR TREATING MUSCLE CONDITIONS” (priority 2022, published 2024).

Common to all, as to type: in vivo, mouse
Test [1] relates to aged (18-month-old) mice. The experiment in a line: Cardiotoxin (CTX)-induced muscle injury, transcript levels, aged mice. Conditions: for MyoD transcript level: 3 and 7 days. How it is done: (§1) Mice were i.p injected with buprenorphine (Centravet, 0.1 mg/kg) 30 minutes before injury and the day after. The day of the injury, mice were anesthetized with isoflurane inhalation and hindlimbs were shaved. Then, 10 μM of cardiotoxin (CTX, Latoxan, #L8102) was injected through two injections of 25 μl into the left tibialis muscle and two injections of 50 μl into the left gastrocnemius muscle, using a 22-gauge needle (Hamilton). Mice were euthanized 3 and 7 days after injury by cervical dislocation, muscles (PBS- and CTX-injected) were cut in two parts, one being snap frozen into liquid nitrogen for total RNA extraction and the other part being embedded into OCT, frozen in isopentane cooled with liquid nitrogen for histological analysis.

The next test deals with young (3-month-old) mice. Put plainly: Cardiotoxin (CTX)-induced muscle injury, transcript levels, young mice. How it is done: as §1
For test [2], the system named is aged (18-month-old) mice. The experiment in a line: Cardiotoxin (CTX)-induced muscle injury, histology of tibialis (cross-sectional area, centrally nucleated fibers). On the procedure:
Impairment of muscle regeneration can contribute to age-related muscle weakness. This is particularly true in aged individuals who engage in physical activity. Exercise-induced muscle hypertrophy is linked to the capacity of muscle stem cells to be activated and promote regeneration.
Mice were i.p injected with buprenorphine (Centravet, 0.1 mg/kg) 30 minutes before injury and the day after. The day of the injury, mice were anesthetized with isoflurane inhalation and hindlimbs were shaved. […]
Mouse muscle samples were dissected and cryopreserved in OCT frozen in liquid nitrogen cooled isopentane. […] Images were captured using a digital camera (Nanozoomer, Hamamatsu) attached to a motorized fluorescence microscope or using Olympus VS120 Virtual Microscopy Slide Scanning System. The area covered by eMHC-positive fibers and degenerated area was determined manually across the entire sections using the VS-ASW FL software measurement tools. The size of myofibers with central nuclei was calculated from laminin/DAPI staining on all fibers of the section and area determination were performed across the entire sections, using an automated image processing algorithm developed internally using the MetaXpress software (Molecular Devices).

The mark [3] stands for this setting: tibialis anterior, 7 days, both BGE-105 dosages.

For `CSCC[C@H](NC(=O)[C@@H]1CCCN1C(=O)CNC(=O)[C@H](CCCCN)NC(=O)[C@H](Cc1c[nH]cn1)NC(=O)[C@H](CO)NC(=O)[C@H](CC(C)C)NC(=O)[C@H](CCCNC(=N)N)NC(=O)[C@@H]1CCCN1C(=O)[C@H](CCCNC(=N)N)NC(=O)[C@@H]1CCC(=O)N1)C(=O)N1CCC[C@H]1C(=O)N[C@@H](Cc1ccccc1)C(=O)O` [Pyr^1-Apelin-13], the MyoD transcript level result in the test on aged (18-month-old) mice [1] (gastrocnemius, both BGE-105 dosages) is given as “significant increase”; in the test on aged (18-month-old) mice [1] (tibialis anterior, both BGE-105 dosages), “significant increase”; with young (3-month-old) mice (gastrocnemius, 3 or 7 days), “no change”; with young (3-month-old) mice (tibialis, 3 or 7 days) it was “no significant increase”. For the same compound, the Myf5 transcript level entry in the test on aged (18-month-old) mice [1] (gastrocnemius, 3 or 7 days) was “no significant change”; in the test with young (3-month-old) mice (gastrocnemius, 3 or 7 days), “no change”; in the test on young (3-month-old) mice (tibialis, 3 or 7 days), “no difference”. The MyoG transcript level entry with aged (18-month-old) mice [1] (gastrocnemius, 3 or 7 days) was “no significant change”; with aged (18-month-old) mice [1] (setting [3]) it was “significant increase”; in the test with young (3-month-old) mice (gastrocnemius, 3 or 7 days), “no change”; in the test with young (3-month-old) mice (tibialis, 3 or 7 days) it was “no difference”. Besides, the Pax7 transcript level entry in the test with aged (18-month-old) mice [1] (gastrocnemius, 3 or 7 days) is “no significant change”; with aged (18-month-old) mice [1] (tibialis anterior, 7 days, BGE-105 50 and 200 mg/kg/day P.O., apelin 0.5 mol/kg/day injection), “significant increase”; in the test with young (3-month-old) mice (gastrocnemius, 3 or 7 days), “no change”; in the test with young (3-month-old) mice (tibialis, 3 or 7 days), “no change”. Further, the MyHC8 transcript level entry is on record as “does not show a change” in the test with aged (18-month-old) mice [1] (gastrocnemius, any time point); “non-significant increase” in the test with young (3-month-old) mice (gastrocnemius, 3 days, both BGE-105 dosages); “no significant change” with young (3-month-old) mice (tibialis, 3 or 7 days). Besides, the MyHC3 transcript level result with aged (18-month-old) mice [1] (setting [3]) is listed as “significant increase”; in the test with young (3-month-old) mice (tibialis, 3 or 7 days), “no significant change”. In addition, the “cross-sectional area of the tibialis” value with aged (18-month-old) mice [2] (3 and 7 days post cardiotoxin, BA1 (50 mg/kg/d) and BA2 (200 mg/kg/d)) is “significant increase”. Also, the “amount of centrally nucleated myofibers (CNM)” value in the test with aged (18-month-old) mice [2] (18-month-old mice after cardiotoxin, significant at the higher BGE-105 dose (200 mg/kg/day)) is recorded as “significant increase”.
